The values below come from patent publication US11801210B2, “Retinol replacement in skin treatment” (SYMRISE AG, priority 2018, dated 2023).

Data set [1] deals with three-dimensional (3D) epidermis model (keratinocytes). As to the kind of experiment: 3D epidermis model, thickness of the epidermis (H&E and Ki67 stained sections). The data set is classed as cell-based. Particulars: 0.01 μM; for Thickness (whole) / Thickness (without stratum corneum): epidermis in stained sections. On the procedure: With such 3D assays significant information is obtained about the complex stratification and terminal differentiation process of keratinocytes in a multilayered epidermal tissue with barrier functionality.
Furthermore, paraffin sectioning and a H&E and Ki67 staining was performed. The thickness of the epidermis in the stained sections was measured and compared between MDI 101, all-trans Retinol, all in a concentration of 0.01 μM and the DMSO control (FIG. 1).

Data set [2] in a line: Solubility and recrystallization in o/w emulsions (microscopy, polarized light). Type of data set: physicochemical. As to the method:
Two pre-blends, A1 and A2, both containing 2.5 w/w % of Hydroxypinacolone Retinoate (MDI 101) were produced according to the above recipe. Three o/w emulsions (A, B and C) according to the following recipe were prepared: Heat Phases A and C separately up to 80° C. Disperse Phase B in A. Add Phase C to AB and emulsify by using an Ultra Turrax Stirrer (3 min, 6000 rpm). Add Phase D and neutralize. Allow to cool by using a vane stirrer. The emulsions were equal, except for the addition of MDI 101. […] As the pre-blends contain 2.5 wt.-% MDI 101, the final concentration of MDI 101 in the emulsions A, B and C was 0.05 wt.-% in all emulsions.

Data set [3] relates to 3T3 swiss albino mouse fibroblasts. As to the kind of experiment: Cytotoxicity assay (TOX8 kit). Type of data set: cell-based. Conditions: Mus musculus, Fibroblast; 3T3 fibroblasts, 48 h treatment; concentration in medium lethal for 50% of living cells. As to the method: (§1) The TOX8 (Sigma Aldrich) Kit was used to determine cytotoxicity retinoic acid, 3,3-dimethyl-2-oxobutyl ester (MDI 101) on 3T3 swiss albino mouse fibroblasts. The 3T3 were cultivated in DMEM medium (Capricorn) including 10% FBS, 1% Penicillin/Streptomycin and 100 nM sodium selenite at 37° C. and 5% CO2. For the cytotoxicity experiment, 3T3 were seeded into 96-well microtiter plate. After 24 hours incubation and a confluence of 30 to 40% the cells were treated with MDI 101 in four different concentrations for 48 h. Test substance was pre-diluted in DMSO, further dilutions were performed in equal medium with 5% FBS. After 48 h a microscopic estimation was carried out and the cells were incubated with TOX8-Kit for two hours at 37° C. and 5% CO2. The absorbance of a converted dye was measured by spectrophotometry at a wavelength of 600 nm. Bioreduction of the dye reduces the amount of its oxidized form (blue) and concomitantly increases the fluorescent intermediate (red), wherein the mechanism and applicability of the test is independent of the cell type. Cell viability was analyzed relative to the solvent-control. The inhibitory concentrations for 50% viability (IC50) and 80% (IC20) were calculated.
(§2) The specific concentration of MDI 101 in the cell culture medium, which is lethal for 20% (IC20) and for 50% (IC50) of living cells was determined: […]

Data set [4] in a line: Cytotoxicity assay (TOX8 kit). Type of data set: cell-based, mouse. Conditions: mouse, 3T3 swiss albino mouse fibroblasts; 3T3 fibroblasts, 48 h treatment; concentration in medium lethal for 20% of living cells (80% viability). As to the method: as §1, §2
Another data set has as its system cells (proliferation). As to the kind of experiment: CyQUANT Direct Cell Proliferation Assay. The data set is classed as cell-based. Conditions: 0.00005 mM; 72 hours; media with 6% FBS. On the procedure: To evaluate the pro-proliferative activity of MDI 101, the CyQUANT® Direct Cell Proliferation Assay was performed. The CyQUANT® Direct assay is based on a cell-permeant DNA-binding dye in combination with a background suppression reagent. As DNA content is highly regulated, cell number estimates are very accurate. The masking dye blocks staining of dead cells and cells with compromised cell membranes, causing only staining of healthy cells. Therefore, the CyQUANT® Direct assay measures proliferation as well as cytotoxicity. The fluorescence can be measured spectrophotometrically from bottom of well with standard green filter sets or wavelengths (EX/EM 508/527 nm).
The proliferation capacity is performed in black 96-well microplates from Corning (Germany) and with the microplate reader “Spark” from Tecan (Crailsheim, Germany).
Cells are seeded in a black 96 well microplate with transparent bottom and incubated at 37° C. and 5% CO2. After 24 hours the supernatant is decanted and the samples are added in fresh media with 6% FBS. As a positive control KGF is always co-tested. […] Then the CyQUANT® Direct assay is performed and the fluorescence is measured from bottom of well at EX/EM 508/527 nm.
The proliferation probability is expressed in percent, which can be determined by rule of proportion in combination with the control.

Data set [5] concerns intracellular radicals (reactive oxygen species, ROS) in cells. As to the kind of experiment: Dichlorofluorescein (DCF) assay, oxidative stress. Type of data set: cell-based. Particulars: for ROS mean value / ROS reduction: 24 h incubation, relative to control. As to the method: For the quantification of intracellular radicals, the dichlorofluorescein (DCF) assay was performed. […] By intracellular esterases and oxidation, the nonfluorescent H2DCFDA is converted to the highly fluorescent 2′,7′-dichlorofluorescein (DCF). The nonfluorescent fluorescin (2′,7′-dichlorofluorescein diacetate (DCFH-DA) pass the cell membranes. In the cytoplasm, it is splitted by intracellular esterases and cannot leave out of the cell in this form. The oxidation by intracellularly existing ROS (reactive oxygen species) modifies the molecule so that will become DCF and emit fluorescence.
Determination of the anti-oxidative capacity is performed in 96-well microplates from Nunc (Wiesbaden, Germany) and with the microplate reader “Spark” from Tecan (Crailsheim, Germany).
Cells are seeded in a black 96 well microplate with transparent bottom and incubated at 37° C. After 24 hours the supernatant is decanted and fresh media with 0.1% FBS is succeded. Further 24 hours later the supernatant is decanted again and the test samples are added and incubated for 24 hours. Varying concentrations of MDI 101 in the cell culture medium were tested. As a positive control Trolox is always co-tested. Then the DCF Assay is performed and the fluorescence is measured from bottom of well at EX/EM 485/528 nm. The antioxidative capacity is expressed in percent, which can be determined by rule of proportion in combination with the control.

A short description of data set [6]: ABTS+ assay, anti-oxidative capacity. The data set is classed as biochemical. Particulars: 10 min at 30° C., 734 nm. As to the method: For the determination of the anti-oxidative capacity, the ABTS+-Assay was performed. The assay principle bases on the reduction and the involved decolourization of the green coloured cationic radical 2,2′-Azinobis(3-ethylbenzothiazoline 6-sulfonic acid) (ABTS+) by antioxidants. The decolourization can be measured spectrophotometrically at 734 nm.
The determination of the anti-oxidative capacity is performed in 96-well microplates from Nunc (Wiesbaden, Germany) and with the microplate reader “Spark” from Tecan (Crailsheim, Germany).
Samples were incubated for 10 min at 30° C. with the 2,2′-Azinobis-(3-ethylbenzothiazoline-6-sulfonate (ABTS+) radical cation (Sigma, St. Louis, USA) prepared by reaction of ABTS+ with potassium persulfate. As a positive control Trolox is always co-tested. The degree of decolourization was determined spectrophotometrically at 734 nm by […]. Results are mean values from 2 independent experiments with quadruple determinations each.
The antioxidative capacity is expressed in IC50 values (concentration that scavenges 50% of the cationic radical relative to the untreated ABTS+ solution), which can be determined by a trend calculation.

`CC1=C(/C=C/C(C)=C/C=C/C(C)=C/CO)C(C)(C)CCC1` [All-trans Retinol, reference compound]: in data set [1], the “Thickness (whole)” value worked out at 150 μm and the “Thickness (without stratum corneum)” value amounted to 85 μm.

Consider `CC1=C(/C=C/C(C)=C/C=C/C(C)=C/C(=O)OCC(=O)C(C)(C)C)C(C)(C)CCC1` [MDI 101, retinoic acid, 3,3-dimethyl-2-oxobutyl ester], for which, in data set [2] (pre-solved in diisopropyl adipate, recrystallization could be avoided), the “Solubility after pre-solving in diisopropyl adipate” value is listed as “strongly improved the solubility”. In addition, the “Solubility in cosmetic or pharmaceutical compositions (e.g. emulsions)” value in data set [2] (sole powder) is listed as “poor solubility”. For the same compound, the midpoint of inhibition in data set [3], the IC50, lay at 263 µM. In data set [4], it took 171 µM to reach the 20% level (IC20 at 48 h). The “Effect on the thickness of the epidermis (in words)” value in data set [1] (compared with all-trans Retinol in the same concentration) is given as “better than the effect of all-trans Retinol”. In data set [1], the “Thickness (whole)” value is on record as 157 μm. Besides, the “Thickness (without stratum corneum)” value in data set [1] turned out to be 112.5 μm. Moreover, in the data set on cells (proliferation), the “Mean proliferation compared to control (100%)” value turned out to be 125%. The ROS mean value came out at 75% in data set [5] (0.002 μM) and 23% in data set [5] (0.02 μM). The results for the ROS reduction in data set [5] (0.002 μM) and in data set [5] (0.02 μM) were 25% and 77.5%, respectively. In addition, the “Anti-oxidative effect (in words)” value in data set [5] (concentrations which should have no cytotoxic effect) was “anti-oxidative effect”. The Mean inhibition was determined as 8.8% in data set [6] (2 μM); 17.7% in data set [6] (25 μM); 27.3% in data set [6] (50 μM); 83.3% in data set [6] (250 μM); 96.4% in data set [6] (500 μM).
